Results on 17 compounds are retold here after patent US5064637A, “Substituted sulfonamide derivatives which inhibit allergic reactions” (Board of Regents, The University of Texas System, priority 1989, dated 1991).

Usually % Inhibition stands for the relative decrease from the control value, in per cent. A lower % Inhibition goes with little suppression.

Assay [1] concerns IgG to SMX. The assay can be described thus: Example 1: inhibition of IgG binding, ELISA, serum preincubated overnight with inhibitor. The arrangement: species or system human. Conditions: for Reduction in percent binding: 20 microliter of 10 mg/ml inhibitor to 180 microliter serum, overnight; for inhibition of IgG binding (in words): serum dilutions 1:40, 1:80, 1:160. As to the method: This experiment was performed to determine the amount of binding inhibition achieved with various inhibitory agents. […] The experiments were performed in 96-well microtiter plates having 8 rows
designated A-H, and 12 columns designated 1-12. Each well of the microtiter plate was given a designation in accordance with the above grid system. All samples were diluted in phosphate buffered saline (PBS) to the designated dilution factor. The serum dilution levels used in this study were 1:40, 1:80 and 1:160, v/v.
A sample of each serum dilution was preincubated overnight with a IgG binding inhibitor selected from Table 2. A 2o-lambda (mioroliter) volume from a lo mg/ml solution of the selected inhibitor was added to a 180 lambda volume of the particular serum sample.
One hundred milligrams (I00 mg) of each of the listed compounds was weighed out and added to a 10 ml volume of 100% PBS so as to achieve a final concentration of 10 mg/ml by weight of the inhibitor.
In accordance with the aforedescribed system, the wells at Row A, columns 1 and 2 of the microtiter plate, received 100 microliters of phosphate buffered saline as a blank. Row A, columns 3 and 4, received normal serum diluted 1:40 in PBS, and served as a negative control. Row A, columns 5 and 6 received -00 microliters of a positive serum (i.e., serum sample positive for IgG to SMX) diluted -:40. Row A, columns 7 and 8, received positive serum diluted at 1:80. Similarly, Row A, columns 9 and 10, received 100 microliters positive serum diluted at 1:160. […] The completed microtiter plate consisted of the following sample distribution (see Table 3).
The present invention was tested using a modified ELISA assay. The specific ELISA used employs the following reagents, standards and antibodies.
A general note: An ELISA detects its analyte on a solid surface through an enzyme-linked reagent.

In assay [2] the test system is IgG to SMX. The assay can be described thus: Example 3: inhibition studies, ELISA, serum preincubated overnight with inhibitor. It is filed as binding, human. The following applies: serum 1:40. How it is done: This study was conducted to confirm results on binding inhibition obtained in Example 2. Two positive serums (i.e., positive for IgG to SMX) were employed, including the positive serum used in Examples 1 and 2. PBS (phosphate buffered saline) and a normal serum were also tested in this study.
All serum used were at a 1:40 final dilution. Serum was diluted in PBS.
Several binding inhibitors at various dilutions were used. The particular inhibitors and the dilutions thereof examined appear in Table 8, along with their numerical designations.
Positive serum samples were first preincubated overnight with 50 microliter of the numerically designated inhibitors (10 mg/ml inhibitor solution - See Example I).
A standard ELISA assay was conducted using a 96 well microtiter plate as described for Example I. Row A, wells 3 and 4, received normal serum diluted 1:40 in PBS. Other wells received 10 microliter of positive serum A (Row A, well 5 through Row F, well 6) or positive serum B (Row F, well 7 through Row H, well 6) at a 1:40 dilution in PBS.
That percent binding inhibition obtained for each sample appears at Table 10.

The test system of another assay is Ig to SMX. Kind of assay: Hapten inhibition of Ig binding to SMX-HSA (RAST for IgE, ELISA for IgG, IgA, IgM). The arrangement: species or system human. The following applies: free inhibitor, specificity check.
Assay [3] deals with IgE to SM (N^4 -SMX determinants). Conditions: cited from earlier work.
Assay [4] relates to IgG to SMX. The assay can be described thus: Example 2: hapten inhibition of IgG binding, ELISA, no preincubation. The arrangement: species or system human. The following applies: final serum dilution 1:80. How it is done:
The assay was set up using a 96 well microtiter plate. None of the serum samples were preincubated with inhibitor. Serum used was positive (+) for IgG to SMX, and was used at a final dilution of […] for all wells.
A variety of binding inhibitors were employed at varying concentrations.
A 50 microliter volume of each numerically designated inhibitor was added each well of the plate. A 50 microliter volume of serum (1:40 dilution) positive to IgG to SMX was then added to each well. The final dilution of serum in each was then 1:80.
The microtiter plate was then shaken slightly to mix the contents of each well and then the standard ELISA assay was performed. The plate was then allowed to incubate for 2 hours at room temperature. The plates were then washed and the OD readings taken for each well.
Percent inhibition was then calculated for each sample on the basis of decrease in OD.

Description for Ig to SMX: SMX-HSA was used in radioallergoasorbent test (RAST) assays for IgE and ELISA assays for IgG, IgA, and IgM.

Take `Cc1cc(NS(=O)(=O)c2ccc(N=Nc3cc(CC(N)C(=O)O)ccc3O)cc2)no1` (centres unmarked) [Inhibitor 3]: the “Reduction in percent binding” value with IgG to SMX [1] (serum dilution 1:40) is listed as 28%; in the assay with IgG to SMX [1] (serum dilution 1:80), 50%; in the assay with IgG to SMX [1] (serum dilution 1:160) it was 42%. The “% Reduction in OD” value with IgG to SMX [2] (inhibitor 0.1 mg/ml (Table 8)) is given as 32%.
On to `CC1(C)SC(C(NC(=O)Cc2ccccc2)C(=O)NCc2ccccc2)NC1C(=O)O` (centres unmarked) [Inhibitor 28], for which, in the assay on IgG to SMX [2] (inhibitor 10 mg/ml (Table 8), serum A or B not stated), the “% Reduction in OD” value amounted to 0%.
Regarding `Cc1cc(NS(=O)(=O)c2ccc(N)cc2)no1` [SMX, Sulfamethoxazole, reference compound], in the assay on Ig to SMX, the “inhibition of antibody binding to SMX-HSA (in words)” value is recorded as “also inhibited binding, but were usually less efficient”. Besides, the “inhibition of IgE binding of one highly reactive serum (in words)” value (“inhibition of IgE binding … (in words)” below) in assay [3] is recorded as “significantly inhibited”.
As for `COC(=O)C(N)Cc1ccc(O)c(N=Nc2ccc(S(=O)(=O)Nc3cc(C)on3)cc2)c1` (centres unmarked) [SMX-Tyrosine Methyl ester], the “% Inhibition” value in the assay with IgG to SMX [4] (inhibitor 10 mg/ml) amounted to 32%. The “inhibition of IgG binding (in words)” value in the assay on IgG to SMX [1] was “considerable inhibition at the 1:40 serum dilution only”.
On to `Cc1cc(NS(=O)(=O)c2ccc(N=Nc3cc(CC(N)C(=O)O)ccc3O)cc2)no1` (centres unmarked) [SMX-Tyrosine], for which the “% Inhibition” value in the assay with IgG to SMX [4] (inhibitor 0.1 mg/ml) came to 51%; with IgG to SMX [4] (inhibitor 0.3 mg/ml), 54%; with IgG to SMX [4] (inhibitor 1 mg/ml), 57%; in the assay with IgG to SMX [4] (inhibitor 3 mg/ml), 70%; in the assay on IgG to SMX [4] (inhibitor 10 mg/ml), 59%. Further, in the assay on IgG to SMX [1], the “inhibition of IgG binding (in words)” value was “significantly inhibit binding”.
Take `COc1cc(Cc2cnc(N)nc2N)cc(OC)c1OC` [Trimethoprim]: the “inhibition of IgE binding … (in words)” value in assay [3] is reported as “not”.
With `Cc1ccnc(NS(=O)(=O)c2ccc(N)cc2)n1` [sulfamerazine], in assay [3], the “inhibition of IgE binding … (in words)” value was “significantly inhibited”.
Turning to `Cc1nnc(NS(=O)(=O)c2ccc(N)cc2)s1` [sulfamethizole], in assay [3], the “inhibition of IgE binding … (in words)” value is “significantly inhibited”.
In the case of `Nc1ccc(S(=O)(=O)O)cc1` [sulfanilic acid], the “inhibition of IgE binding … (in words)” value in assay [3] is on record as “not”.
Regarding “N^4 -sulfamethoxazoyl-L-histidine [SMX-Histidine]”, the “inhibition of antibody binding to SMX-HSA (in words)” value in the assay with Ig to SMX (listed as N^4 -sulfamethoxazoyl histidine) is “among the most active”; with Ig to SMX (listed as SMX-HD), “inhibition of binding”. In addition, the “% Inhibition” value in the assay with IgG to SMX [4] (inhibitor 10 mg/ml) is 54%. Also, the “inhibition of IgG binding (in words)” value with IgG to SMX [1] is “significant reduction in binding at the 1:80 and I:160 serum dilution, but none at the 1:40 dilution”.
In the case of “N^4 -sulfamethoxazoyl-poly-L-tyrosine [SMX-poly-L-tyrosine]”, the “% Inhibition” value with IgG to SMX [4] (inhibitor 0.1 mg/ml) is on record as 0%; in the assay on IgG to SMX [4] (inhibitor 0.3 mg/ml), 2%; in the assay on IgG to SMX [4] (inhibitor 1 mg/ml), 24%; with IgG to SMX [4] (inhibitor 3 mg/ml), 46%; with IgG to SMX [4] (inhibitor 10 mg/ml), 50%. Further, in the assay with IgG to SMX [1], the “inhibition of IgG binding (in words)” value is reported as “significantly inhibit binding”.
On to SMX-Imidazole, for which, in the assay with IgG to SMX [4] (inhibitor 10 mg/ml), the “% Inhibition” value was 61%.
In the case of SMX-Lysine, the “% Inhibition” value in the assay on IgG to SMX [4] (inhibitor 10 mg/ml) was determined as 51%.
Consider SMX-Tryptophan, for which, in the assay on IgG to SMX [4] (inhibitor 10 mg/ml), the “% Inhibition” value amounted to 52%.
For Sulfamerazine-Histidine, the “% Inhibition” value with IgG to SMX [4] (inhibitor 10 mg/ml) amounted to 35%.
As for “Sulfamethizole-histidine [Sulfamethazole-histidine]”, in the assay with IgG to SMX [4] (inhibitor 10 mg/ml), the “% Inhibition” value came out at 7%.
Regarding Sulfanilic-Histidine, the “% Inhibition” value with IgG to SMX [4] (inhibitor 10 mg/ml) was determined as 60%.
